Test results: PubChem BioAssay AID1645848
Converted amounts (≈) assume the structure as drawn.

Settings: buffer; pH 7.4; 6.0 h; 150.0 µM

Structure (SMILES) | solubility kinetic [µg/mL]
COc1ccc(-c2ccc(C(=O)NC3CC(c4cc(=O)[nH]c(N)n4)C3)o2)cc1 (stereo not drawn) | 30.4 (≈ 79.9 µM)
Fc1ccc(Nc2nc(-c3ccncc3Cl)nc3ccccc23)cc1F | < 1
NC(=O)N1CCN(c2nc(-c3ccc(Br)cc3)cs2)CC1 | 1.84 (≈ 5.01 µM)
O=C(NCc1ccc(S(=O)(=O)c2cccc(C(F)(F)F)c2)cc1)c1cnc2[nH]ncc2c1 | 5.88 (≈ 12.8 µM)
Cc1ccc(S(=O)(=O)Nc2ncccc2C(=O)Nc2nc(-c3ccccc3)cs2)cc1 | < 1
Cc1ccc(-c2cc(C(=O)Nc3ccc(S(N)(=O)=O)cc3)c3ccccc3n2)cc1C | < 1
CCC[C@H](NC(=O)/C(C#N)=C/c1cccc(Br)n1)c1ccccc1 | < 1
O=C(NC1CCCc2c1cnn2-c1cccc(O)c1)c1ccccn1 (stereo not drawn) | 40 (≈ 120 µM)
OCc1ccc(-c2nn(Cc3ccccc3)c3ccccc23)o1 | 2.72 (≈ 8.94 µM)
CC1CCc2ccc(F)cc2N1S(=O)(=O)c1cccs1 (stereo not drawn) | 3.12 (≈ 10 µM)
Cc1ccc(-c2nc3ccccc3o2)cc1NC(=O)COc1ccccc1 | < 1
CC(C)OC(=O)c1ccnc2cc(C(OCCN3CCCCC3)c3ccccc3Cl)sc12 (stereo not drawn) | 16.6 (≈ 35 µM)
Cc1nn(CCc2nc(-c3ccc4ccccc4c3)cs2)c2[nH]c(=O)cc(C(F)(F)F)c12 | < 1
O=S(=O)(Nc1ccc(S(=O)(=O)Nc2nccs2)cc1)c1ccc2ccccc2c1 | 33.2 (≈ 74.6 µM)
O=C1C2=C(Nc3ccccc3SC2c2ccco2)c2ccccc21 (stereo not drawn) | < 1
O=C(Nc1cccc(Cc2ccccc2)n1)c1ccc(-c2cccc([N+](=O)[O-])c2)o1 | 2.73 (≈ 6.84 µM)
NC(=O)C1CCN(c2nc(-c3ccc4ccccc4c3)cs2)CC1 | 3.67 (≈ 10.9 µM)
COc1cc(-c2nc(Nc3ccc(F)c(F)c3)c3ccccc3n2)ccn1 | < 1
O=C(Nc1nnc(-c2ccco2)o1)c1ccc(Cl)cc1 | 28.2 (≈ 97.3 µM)
CCCCNC(=O)CN1CCN(c2ncc(NC(=O)c3ccc(Cl)cc3)cc2C(=O)O)CC1 | > 70
Cc1ccc2nc(-c3ccccn3)c(Nc3ccccc3C)n2c1 | < 1
CC1=C(C(=O)NC2CCCCC2)C(c2ccccc2Br)N=C(Nc2nc3ccccc3o2)N1 (stereo not drawn) | < 1
COCCOc1cnc2ccn([C@H](C)c3nnc4c(F)cc(-c5cnn(C)c5)cn34)c(=O)c2c1 | > 68
O=C(COc1ccccc1)NCC(c1cccs1)S(=O)(=O)c1ccc(Cl)cc1 (stereo not drawn) | 3.83 (≈ 8.79 µM)
CCOc1ccc(C(=O)Nc2ccc(S(=O)(=O)N3CCCCC3c3cccnc3)cc2)cc1 (stereo not drawn) | < 1

Structure (SMILES) | solubility kinetic [µg/mL]
CCc1cccc(NC(=O)c2cc(-c3ccc[nH]3)n[nH]2)c1 | 4.59 (≈ 16.4 µM)
CC1(C)C[C@@H]2C[C@@](C)(CN2S(=O)(=O)c2ccc(C(=O)Nc3ccc(Cl)c(S(=O)(=O)N4CCOCC4)c3)cc2)C1 | < 1
Cc1ccc(-c2cc(C(=O)Nc3ccc(S(=O)(=O)N(C)C)cc3)c3ccccc3n2)cc1C | < 1
NC(=O)C1CCN(c2nc(-c3ccccc3C(F)(F)F)cs2)CC1 | > 52
CCCCCn1c(=O)[nH]c2cc(C(=O)NCCCN3CCCCC3)ccc2c1=O | > 59
CCCCC1CCC(C(=O)Nc2ccc(S(=O)(=O)Nc3nccs3)cc2)CC1 (stereo not drawn) | < 1
O=C(/C=C/c1cn(CC(O)CN2CCCCCC2)c2ccccc12)c1ccc(Br)cc1 (stereo not drawn) | < 1
Cc1ccc(NC(=O)c2c(N3CCCC3=O)c3cc(C)ccc3n2C)c(C)c1 | < 1
COc1cc(Nc2nc(-c3ccncc3)nc3ccccc23)ccc1NS(C)(=O)=O | < 1
NC(=O)c1ccc(-c2ncc3cnc(-c4cccc(F)c4)cn23)cc1 | 10.9 (≈ 32.8 µM)
OCCOCCN1CCN(C(c2ccccc2)c2ccc(Cl)cc2)CC1 (stereo not drawn) | > 55
CCNC(=O)c1coc(COc2ccc3c(c2)C(c2ccc(F)cc2)N(C(=O)CC(C)C)CC3)n1 (stereo not drawn) | 3.8 (≈ 7.92 µM)
COc1cc(-c2nc(Nc3ccc(F)c(F)c3)c3ccccc3n2)cc(OC)n1 | < 1
Nc1cccc(CNc2ccc(S(=O)(=O)Nc3nccs3)cc2)c1O | 47.2 (≈ 125 µM)
CS(=O)(=O)c1ccc2nc(NC(=O)C3CC3)sc2c1 | 22.7 (≈ 76.7 µM)
CCOC(=O)c1ccnc(CNCC(=O)N(CC)CCN(C)C)c1 | > 50
CN(C)CC(=O)NC1CCCc2c1cnn2-c1ccc(F)cc1F (stereo not drawn) | > 33
O=C(Nc1nc(-c2ccccn2)cs1)c1cccc(S(=O)(=O)N2CCOCC2)c1 | 24.3 (≈ 56.4 µM)
COC(=N)c1nc2ccc3ncnc(Nc4ccc(F)cc4Br)c3c2s1 | < 1
O=C(Nc1ncc([S+](=O)([O-])N2CCOCC2)s1)c1cccc(Br)c1 | 2.94 (≈ 6.79 µM)
CC[C@H]1CN2CCC3CC(OC)C(OC)CC3[C@@H]2C[C@@H]1C[C@H]1NCCC2=C1CC(OC)=C(O)C2 (stereo partly drawn) | 44.6 (≈ 93.9 µM)
Cc1cc(N[S+](=O)([O-])c2ccc(NC(=O)Cc3ccc(F)c(F)c3)cc2)no1 | > 60
O=C1Cc2cc(C(=O)c3ccco3)ccc2N1 | > 34
CCOc1ccc(Nc2nc(C)c(NC(=O)c3ccc(C)cc3)c(Nc3ccc(OCC)cc3)n2)cc1 | < 1
CCCc1nnc(NC(=O)c2nc(S(=O)(=O)Cc3ccc(C)cc3)ncc2Cl)s1 | > 67

Structure (SMILES) | solubility kinetic [µg/mL]
CN1C(=O)C(=O)N2C(=C[C@]3(c4c[nH]c5ccccc45)c4ccccc4N[C@H]23)C1=O | < 1
c1cc(-c2cc(-c3ccncc3)c3cncn3c2)c2cc[nH]c2c1 | < 1
CCCN(C(=O)c1sc2nc3n(c(=O)c2c1C)CCCC3)c1ccccc1C | 1.83 (≈ 4.64 µM)
CCN(CC)C(=O)c1ccc2c(c1)ncn2-c1cccc(C)c1 | > 45
COc1ccc(C[C@@H]2C(=O)N[C@H](C)C(=O)N(C)[C@@H]3C(=O)N(C)[C@@H](Cc4ccc(O)c(c4)Oc4ccc(cc4)[C@H]3O)C(=O)N[C@@H](C)C(=O)N[C@H](C)C(=O)N2C)cc1 | 96.4 (≈ 125 µM)
NC(=O)C1CCN(c2nc(-c3cccc(F)c3)cs2)CC1 | > 45
NC(=O)c1ccc(-c2nc3c([nH]2)CN(C(=O)CN2CCOCC2)CC3)cc1 | > 55
CN1CC(CNC(=O)OCc2ccccc2)C[C@H]2c3cccc4c3c(cn4C)CC21 (stereo partly drawn) | 38.4 (≈ 95.2 µM)
Cc1cccc(S(=O)(=O)c2cn(Cc3ccccc3)c3cc(N4CCCCC4C)c(F)cc3c2=O)c1 (stereo not drawn) | < 1
COc1ccccc1NS(=O)(=O)c1cccc(NC(=O)c2[nH]c(C)c(C(C)=O)c2C)c1 | 15.2 (≈ 34.4 µM)
COc1cccc(CNC(=O)CCCn2nc(C)c3c(C)n(-c4ccc(C)cc4)nc3c2=O)c1OC | 2.58 (≈ 5.26 µM)
COc1ccccc1N1CCN(c2ccc3cc(S(=O)(=O)N4CCCCC4)ccc3n2)CC1 | < 1
CC(C)(C)NS(=O)(=O)c1ccc(-c2ccc3[nH]nc(N)c3c2)cc1 | > 51
CC(=O)c1ccc(N[S+](=O)([O-])c2cccc(NC(=O)c3[nH]c(C)c(C(C)=O)c3C)c2)cc1 | 21.3 (≈ 47 µM)
Cc1ccc(S(=O)(=O)Nc2cc(Cl)ccc2C(=O)Nc2nc(-c3ccccc3)cs2)cc1 | < 1
O=C(Nc1ccc(C(=O)Nc2nccs2)cc1)c1ccc2ccccc2c1 | < 1
Cc1ccc(-c2[nH]n3c(=O)c4c(nc3c2C)CCCC4)cc1 | 1.03 (≈ 3.52 µM)
Cc1cc(CNC(=O)c2ccc3c(c2)n(CC2CC2)c(=O)n3C2CCCCC2)on1 | 15.6 (≈ 38.3 µM)
CC(=O)c1ccc(N2CCN(c3ccc(NC(=O)c4ccc(F)cc4)cc3C(=O)O)CC2)cc1 | < 1
Nc1c(C(=O)Nc2ccc(Cl)cc2)sc2nc3c(cc12)N1CCC3CC1 | < 1
Cc1ccc(S(=O)(=O)Nc2ccc(C(=O)Nc3nc(-c4ccc(Cl)cc4)cs3)cc2)cc1 | < 1
CCOC(=O)CCNc1cc(N2CCc3ccccc3CC2)nc(-c2cccnc2)n1 | 4.04 (≈ 9.67 µM)
COc1c(C)c2c(c(O)c1C/C=C(\C)CCC(=O)OCCN1CCOCC1)C(=O)OC2 | > 64
Cc1cnc(-c2ccccc2C2COC2)nc1NCc1ccc(-c2cccnc2)cc1 | > 60
CCOc1cccc(C(=O)Nc2nc3c(s2)CC(C(C)(C)C)CC3)c1 (stereo not drawn) | < 1

Structure (SMILES) | solubility kinetic [µg/mL]
Cc1ccc(S(=O)(=O)Nc2cnccc2C(=O)Nc2nc(-c3ccccc3Cl)cs2)cc1 | 0.005 (≈ 0.0103 µM)
Cc1nc(N)nc2ccccc12 | > 24
Cn1c(=O)c2c(-c3ccc(Cl)cc3)n(CCc3ccccc3)cc2n(C)c1=O | 2.15 (≈ 5.46 µM)
CCc1cc(Cl)c(OC)c(C(=O)NC[C@@H]2CCCN2CC)c1O.Cl | 27.3
COc1ccc(-c2ccc3nc(-c4cc(C)cc(C)c4)oc3c2)c(OC)c1OC | < 1
Cc1nc2c(-c3ccccc3)cnn2c(N)c1-c1ccccc1 | < 1
COc1ccc(Cl)cc1C(=O)Nc1nc(-c2ccccc2)cs1 | < 1
O=C(NCCCc1ccccc1)c1cccc(-c2cc(O)c3ncccc3c2)c1 | < 1
CC1=C[C@@H](CNCc2cccnc2)[C@H](C(C)C)C[C@H]1Cc1nnc(-c2ccc([N+](=O)[O-])cc2)o1 | > 68
CC1=C(C(=O)Nc2ccccc2C)C(c2ccccc2Br)N=C(Nc2nc3ccccc3o2)N1 (stereo not drawn) | < 1
CCOC(=O)C1(Cc2ccccc2C(F)(F)F)CCN(C2CCN(C(C)C)CC2)CC1 | 55 (≈ 125 µM)
Nc1ccccc1CNc1ccc(S(=O)(=O)Nc2nccs2)cc1 | > 53
Cn1c2ccccc2c(=O)c2c(=O)n(-c3ccccc3)c(C3CCCCC3)nc21 | < 1
Cn1c(CN2CCCC2)nc2cc(NC(=O)COc3ccc(Cl)cc3)ccc21 | > 59
Cc1noc(C)c1-c1cc(-c2ccc3c(c2)C(=O)NC3)cn2cncc12 | > 76
CCOc1ccc(CCNC(=O)c2cc3ccncc3n2Cc2cccc(C)n2)cc1OCC | > 68
CC/C=C\C/C=C\C/C=C\C/C=C\C/C=C\C/C=C\CCC(=O)NCCO | > 55
COc1cc2ncnc(Nc3ccc(Oc4ccccc4)cc3)c2cc1OC | < 1
Cc1noc(C)c1C(=O)N1CCC2(CCCN(C(c3ccccc3)c3ccccc3)C2)CC1 | 1.15 (≈ 2.6 µM)
CC(=O)c1ccc(-c2csc(N3CCC(C(N)=O)CC3)n2)cc1 | 6.11 (≈ 18.6 µM)
CNc1nc(-c2ccc3c(N)n[nH]c3c2)cc(N2C[C@@H](C(=O)NC3CCCCC3)CC[C@H]2C)n1 | 15.2 (≈ 32.9 µM)
Clc1ccc2ncc(-c3cccc(NC4CCNCC4)n3)n2c1 | > 48
O=C(O)c1cccc(-c2cnc3ccccc3c2)c1 | > 37
